# In patent US20070117770A1, “Human ribosomal DNA (rDNA) and ribosomal RNA (rRNA) nucleic acids and uses thereof” (Cylene Pharmaceuticals, Inc., priority 2005, published 2007):
# What was measured:
# Experiment in all cases: Protein kinase inhibition assay
# Format in all cases: biochemical
# HIPK1(h) = HIPK1(h) (Homo sapiens, UniProt Q86Z02); conditions: read-out: percent residual activity of HIPK1(h)
# Procedure: (§1) Certain compounds were tested for activity in protein kinase inhibition assays. All substrates were dissolved and diluted to working stocks in de-ionized water, apart from histone H1 (10× working stock in 20 mM MOPS pH 7.0), PDKtide (10× working stock in 50 mM Tris pH 7.0) ATF2 (which is typically stored at a 20× working stock in 50 mM Tris pH 7.5, 150 mM NaCl, 0.1 mM EGTA, 0.03% Brij-35, 50% glycerol, 1 mM benzamidine, 0.2 mM PMSF and 0.1% R-mercaptoethanol), KKLNRTLSFAEPG (SEQ ID NO:203) and RRRLSFAEPG (SEQ ID NO:204) (50 mM HEPES pH 7.4) and GGEEEEYFELVKKKK (SEQ ID NO:205) (20 mM MOPS pH 7.0). All kinases were pre-diluted to a 10× working concentration prior to addition into the assay. The composition of the dilution buffer for each kinase is detailed below.
# CaMKIIγ(h) = CaMKIIγ(h) (Homo sapiens, UniProt Q13555); conditions: read-out: percent residual activity of CaMKIIγ(h)
# Procedure: as §1
# SRPK1(h) = SRPK1(h) (Homo sapiens, UniProt Q96SB4); conditions: read-out: percent residual activity of SRPK1(h)
# Procedure: as §1
# CaMKIIδ(h) = CaMKIIδ(h) (Homo sapiens, UniProt Q13557); conditions: read-out: percent residual activity of CaMKIIδ(h)
# Procedure: as §1
# CK1γ2(h) = CK1γ2(h) (Homo sapiens, UniProt P78368); conditions: read-out: percent residual activity of CK1γ2(h)
# Procedure: as §1
# CK2α2(h) = CK2α2(h) (Homo sapiens, UniProt P19784); conditions: read-out: percent residual activity of CK2α2(h)
# Sequence of CK2α2(h) (P19784 whole entry): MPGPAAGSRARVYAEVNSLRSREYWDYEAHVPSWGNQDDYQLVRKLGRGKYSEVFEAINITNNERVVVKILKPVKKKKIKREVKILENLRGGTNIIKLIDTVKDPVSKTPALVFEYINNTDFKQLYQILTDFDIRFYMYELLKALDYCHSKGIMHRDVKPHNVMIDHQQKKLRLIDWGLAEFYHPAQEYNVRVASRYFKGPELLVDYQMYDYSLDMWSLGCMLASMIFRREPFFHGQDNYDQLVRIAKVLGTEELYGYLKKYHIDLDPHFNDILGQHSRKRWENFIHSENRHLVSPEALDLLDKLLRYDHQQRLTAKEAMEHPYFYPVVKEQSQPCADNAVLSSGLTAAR
# Procedure: as §1
# LOK(h) = LOK(h) (Homo sapiens, UniProt O94804); conditions: read-out: percent residual activity of LOK(h)
# Procedure: as §1
# EphB1(h) = EphB1(h) (Homo sapiens, UniProt P54762); conditions: read-out: percent residual activity of EphB1(h)
# Procedure: as §1
# DYRK2(h) = DYRK2(h) (Homo sapiens, UniProt Q92630); conditions: read-out: percent residual activity of DYRK2(h)
# Procedure: as §1
# NLK (h) = NLK (h) (Homo sapiens, UniProt Q9UBE8); conditions: read-out: percent residual activity of NLK (h)
# Procedure: as §1
# CaMKIIβ(h) = CaMKIIβ(h) (Homo sapiens, UniProt Q13554); conditions: read-out: percent residual activity of CaMKIIβ(h)
# Procedure: as §1
# SIK(h) = SIK(h) (Homo sapiens, UniProt P57059); conditions: read-out: percent residual activity of SIK(h)
# Procedure: as §1
# HIPK3(h) = HIPK3(h) (Homo sapiens, UniProt Q9H422); conditions: read-out: percent residual activity of HIPK3(h)
# Procedure: as §1
# MRCKα(h) = MRCKα(h) (Homo sapiens, UniProt Q5VT25); conditions: read-out: percent residual activity of MRCKα(h)
# Procedure: as §1
# MST3(h) = MST3(h) (Homo sapiens, UniProt Q9Y6E0); conditions: read-out: percent residual activity of MST3(h)
# Sequence of MST3(h) (Q9Y6E0 whole entry): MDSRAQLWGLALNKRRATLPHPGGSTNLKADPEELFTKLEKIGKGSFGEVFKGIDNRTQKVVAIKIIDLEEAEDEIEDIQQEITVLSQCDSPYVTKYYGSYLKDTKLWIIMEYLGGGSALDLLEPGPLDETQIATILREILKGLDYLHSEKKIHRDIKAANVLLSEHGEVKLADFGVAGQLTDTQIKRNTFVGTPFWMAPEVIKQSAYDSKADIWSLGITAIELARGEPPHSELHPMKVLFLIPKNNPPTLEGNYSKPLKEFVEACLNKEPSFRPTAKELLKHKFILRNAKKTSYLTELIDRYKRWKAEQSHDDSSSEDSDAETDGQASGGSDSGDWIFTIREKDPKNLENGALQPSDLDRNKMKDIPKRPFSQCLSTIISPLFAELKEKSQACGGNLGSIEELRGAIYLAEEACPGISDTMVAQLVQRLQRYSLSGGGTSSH
# Procedure: as §1
# MARK1(h) = MARK1(h) (Homo sapiens, UniProt Q9P0L2); conditions: read-out: percent residual activity of MARK1(h)
# Sequence of MARK1(h) (Q9P0L2 whole entry): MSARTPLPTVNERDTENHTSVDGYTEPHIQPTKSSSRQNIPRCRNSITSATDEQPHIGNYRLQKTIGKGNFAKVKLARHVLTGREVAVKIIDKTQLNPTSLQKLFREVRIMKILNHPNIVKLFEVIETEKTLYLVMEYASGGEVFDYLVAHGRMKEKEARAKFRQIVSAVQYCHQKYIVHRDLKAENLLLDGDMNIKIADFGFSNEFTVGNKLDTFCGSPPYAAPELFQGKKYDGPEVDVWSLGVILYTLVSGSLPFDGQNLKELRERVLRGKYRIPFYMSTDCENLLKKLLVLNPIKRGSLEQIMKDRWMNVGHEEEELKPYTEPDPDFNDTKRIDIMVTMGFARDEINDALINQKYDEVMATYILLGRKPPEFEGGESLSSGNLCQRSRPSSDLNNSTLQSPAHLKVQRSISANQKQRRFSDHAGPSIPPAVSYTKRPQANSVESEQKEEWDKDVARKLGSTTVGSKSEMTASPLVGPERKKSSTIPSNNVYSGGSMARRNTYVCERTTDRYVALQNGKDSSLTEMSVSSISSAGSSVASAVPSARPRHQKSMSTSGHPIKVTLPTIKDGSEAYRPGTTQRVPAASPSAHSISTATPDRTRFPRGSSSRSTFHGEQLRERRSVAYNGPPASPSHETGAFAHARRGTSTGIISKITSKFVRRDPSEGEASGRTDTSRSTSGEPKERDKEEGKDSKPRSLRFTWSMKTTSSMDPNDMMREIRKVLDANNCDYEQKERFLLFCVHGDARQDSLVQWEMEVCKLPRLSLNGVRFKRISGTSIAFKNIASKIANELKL
# Procedure: as §1
# DAPK1(h) = DAPK1(h) (Homo sapiens, UniProt P53355); conditions: read-out: percent residual activity of DAPK1(h)
# Procedure: as §1
# EGFR(T790M)(h) = EGFR(T790M)(h) (Homo sapiens, UniProt P00533, T790M); conditions: read-out: percent residual activity of EGFR(T790M)(h)
# Sequence of EGFR(T790M)(h) (P00533 25-1210 T790M): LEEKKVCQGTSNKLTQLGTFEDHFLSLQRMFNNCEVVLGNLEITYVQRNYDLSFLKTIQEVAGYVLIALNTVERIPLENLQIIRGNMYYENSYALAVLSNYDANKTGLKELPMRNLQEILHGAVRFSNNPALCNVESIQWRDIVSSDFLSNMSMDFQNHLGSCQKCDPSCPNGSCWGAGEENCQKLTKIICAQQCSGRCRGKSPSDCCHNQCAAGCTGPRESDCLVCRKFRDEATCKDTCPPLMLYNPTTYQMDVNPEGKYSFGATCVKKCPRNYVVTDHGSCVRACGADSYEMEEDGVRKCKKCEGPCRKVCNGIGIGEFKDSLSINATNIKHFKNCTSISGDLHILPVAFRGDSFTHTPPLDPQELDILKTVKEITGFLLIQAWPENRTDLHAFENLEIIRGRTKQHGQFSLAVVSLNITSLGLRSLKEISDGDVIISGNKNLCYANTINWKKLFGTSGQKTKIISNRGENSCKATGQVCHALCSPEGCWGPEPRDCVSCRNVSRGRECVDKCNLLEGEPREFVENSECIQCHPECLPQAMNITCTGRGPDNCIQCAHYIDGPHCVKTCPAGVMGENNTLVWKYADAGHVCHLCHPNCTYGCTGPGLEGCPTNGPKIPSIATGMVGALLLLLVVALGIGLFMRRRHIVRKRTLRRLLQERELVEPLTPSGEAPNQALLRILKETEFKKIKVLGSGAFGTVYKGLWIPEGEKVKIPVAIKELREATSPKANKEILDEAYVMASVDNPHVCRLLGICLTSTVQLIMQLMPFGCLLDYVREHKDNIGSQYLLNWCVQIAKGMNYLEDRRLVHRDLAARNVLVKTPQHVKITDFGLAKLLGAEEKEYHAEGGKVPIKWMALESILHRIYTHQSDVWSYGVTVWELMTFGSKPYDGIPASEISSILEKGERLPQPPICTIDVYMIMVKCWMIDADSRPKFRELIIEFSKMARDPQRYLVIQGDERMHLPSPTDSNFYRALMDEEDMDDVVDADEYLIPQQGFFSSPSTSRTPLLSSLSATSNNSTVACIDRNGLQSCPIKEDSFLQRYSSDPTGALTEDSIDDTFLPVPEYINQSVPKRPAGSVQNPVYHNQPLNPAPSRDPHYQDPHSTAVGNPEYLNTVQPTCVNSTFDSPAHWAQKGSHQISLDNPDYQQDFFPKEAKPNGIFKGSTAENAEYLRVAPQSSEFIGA
# Procedure: as §1
# WNK2(h) = WNK2(h) (Homo sapiens, UniProt Q9Y3S1); conditions: read-out: percent residual activity of WNK2(h)
# Procedure: as §1
# NEK11(h) = NEK11(h) (Homo sapiens, UniProt Q8NG66); conditions: read-out: percent residual activity of NEK11(h)
# Procedure: as §1
# STK33(h) = STK33(h) (Homo sapiens, UniProt Q9BYT3); conditions: read-out: percent residual activity of STK33(h)
# Procedure: as §1
# GRK6(h) = GRK6(h) (Homo sapiens, UniProt P43250); conditions: read-out: percent residual activity of GRK6(h)
# Procedure: as §1
# TSSK1(h) = TSSK1(h) (Homo sapiens, UniProt Q9BXA7); conditions: read-out: percent residual activity of TSSK1(h)
# Procedure: as §1
# Flt4(h) = Flt4(h) (Homo sapiens, UniProt P35916); conditions: read-out: percent residual activity of Flt4(h)
# Sequence of Flt4(h) (P35916 25-1363): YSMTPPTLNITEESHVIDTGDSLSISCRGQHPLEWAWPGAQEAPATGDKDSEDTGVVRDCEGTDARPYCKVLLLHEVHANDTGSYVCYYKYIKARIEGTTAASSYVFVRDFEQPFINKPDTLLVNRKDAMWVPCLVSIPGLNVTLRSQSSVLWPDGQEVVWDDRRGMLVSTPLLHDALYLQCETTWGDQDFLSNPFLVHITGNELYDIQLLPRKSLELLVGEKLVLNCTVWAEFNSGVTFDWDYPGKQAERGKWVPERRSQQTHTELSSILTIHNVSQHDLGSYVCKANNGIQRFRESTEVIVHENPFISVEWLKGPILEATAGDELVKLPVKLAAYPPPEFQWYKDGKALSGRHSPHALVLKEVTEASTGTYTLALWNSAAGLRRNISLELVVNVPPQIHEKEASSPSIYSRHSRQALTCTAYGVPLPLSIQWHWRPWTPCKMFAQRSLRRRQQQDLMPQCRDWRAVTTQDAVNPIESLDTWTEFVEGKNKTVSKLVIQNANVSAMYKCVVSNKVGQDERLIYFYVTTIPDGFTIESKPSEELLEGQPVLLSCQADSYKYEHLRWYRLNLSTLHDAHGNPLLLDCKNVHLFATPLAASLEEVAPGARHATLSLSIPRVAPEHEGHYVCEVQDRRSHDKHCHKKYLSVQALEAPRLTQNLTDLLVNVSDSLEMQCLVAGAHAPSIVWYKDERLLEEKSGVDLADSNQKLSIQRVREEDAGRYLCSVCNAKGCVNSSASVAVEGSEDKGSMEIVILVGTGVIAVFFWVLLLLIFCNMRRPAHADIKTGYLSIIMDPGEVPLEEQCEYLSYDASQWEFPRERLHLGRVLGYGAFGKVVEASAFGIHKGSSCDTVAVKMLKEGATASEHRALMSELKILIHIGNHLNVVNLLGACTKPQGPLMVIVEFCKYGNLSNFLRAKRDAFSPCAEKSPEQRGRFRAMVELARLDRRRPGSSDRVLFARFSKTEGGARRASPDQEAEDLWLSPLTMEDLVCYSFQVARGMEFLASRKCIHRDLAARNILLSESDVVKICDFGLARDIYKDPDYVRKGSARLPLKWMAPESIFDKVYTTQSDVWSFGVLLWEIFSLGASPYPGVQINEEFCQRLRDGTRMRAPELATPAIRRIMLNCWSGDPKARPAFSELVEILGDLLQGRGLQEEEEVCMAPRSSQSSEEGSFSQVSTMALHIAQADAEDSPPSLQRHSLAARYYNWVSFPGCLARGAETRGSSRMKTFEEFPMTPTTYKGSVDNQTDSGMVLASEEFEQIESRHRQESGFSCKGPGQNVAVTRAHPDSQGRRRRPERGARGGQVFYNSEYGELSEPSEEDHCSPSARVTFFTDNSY
# Procedure: as §1
# EphA7(h) = EphA7(h) (Homo sapiens, UniProt Q15375); conditions: read-out: percent residual activity of EphA7(h)
# Sequence of EphA7(h) (Q15375 28-998): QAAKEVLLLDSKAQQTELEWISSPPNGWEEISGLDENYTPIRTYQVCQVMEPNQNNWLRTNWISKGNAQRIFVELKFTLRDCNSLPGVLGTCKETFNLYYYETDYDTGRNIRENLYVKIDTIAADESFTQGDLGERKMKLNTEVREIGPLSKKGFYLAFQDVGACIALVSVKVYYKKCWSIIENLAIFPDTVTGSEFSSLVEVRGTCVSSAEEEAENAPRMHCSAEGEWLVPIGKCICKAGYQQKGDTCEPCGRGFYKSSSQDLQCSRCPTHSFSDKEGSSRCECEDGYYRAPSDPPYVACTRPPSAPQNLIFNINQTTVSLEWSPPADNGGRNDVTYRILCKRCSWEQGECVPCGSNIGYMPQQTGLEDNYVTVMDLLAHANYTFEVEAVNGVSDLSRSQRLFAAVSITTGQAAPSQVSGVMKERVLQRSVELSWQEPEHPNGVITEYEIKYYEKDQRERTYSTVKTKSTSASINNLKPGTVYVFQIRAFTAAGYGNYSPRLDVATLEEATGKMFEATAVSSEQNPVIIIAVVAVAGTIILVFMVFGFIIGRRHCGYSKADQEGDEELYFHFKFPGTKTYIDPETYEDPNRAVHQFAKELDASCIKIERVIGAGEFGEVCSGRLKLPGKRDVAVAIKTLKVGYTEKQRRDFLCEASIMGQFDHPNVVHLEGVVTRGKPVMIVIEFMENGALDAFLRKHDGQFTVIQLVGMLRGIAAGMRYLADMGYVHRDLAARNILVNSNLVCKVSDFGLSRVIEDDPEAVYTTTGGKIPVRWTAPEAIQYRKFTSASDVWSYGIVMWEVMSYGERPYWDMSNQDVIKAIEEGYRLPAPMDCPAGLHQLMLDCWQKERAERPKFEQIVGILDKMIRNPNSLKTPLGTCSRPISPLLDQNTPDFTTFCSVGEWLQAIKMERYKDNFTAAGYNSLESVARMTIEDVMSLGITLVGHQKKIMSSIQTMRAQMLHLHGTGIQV
# Procedure: as §1
# PTK5(h) = PTK5(h) (Homo sapiens, UniProt P42685); conditions: read-out: percent residual activity of PTK5(h)
# Procedure: as §1
# CDK9/cyclin T1(h) = CDK9/cyclin T1(h) (Homo sapiens, UniProt P50750); conditions: read-out: percent residual activity of CDK9/cyclin T1(h)
# Procedure: as §1
remaining activity at 2.5 µM (HIPK1(h)) [%],remaining activity at 2.5 µM (CaMKIIγ(h)) [%],remaining activity at 2.5 µM (SRPK1(h)) [%],remaining activity at 2.5 µM (CaMKIIδ(h)) [%],remaining activity at 2.5 µM (CK1γ2(h)) [%],remaining activity at 2.5 µM (CK2α2(h)) [%],remaining activity at 2.5 µM (LOK(h)) [%],remaining activity at 2.5 µM (EphB1(h)) [%],remaining activity at 2.5 µM (DYRK2(h)) [%],remaining activity at 2.5 µM (NLK (h)) [%],remaining activity at 2.5 µM (CaMKIIβ(h)) [%],remaining activity at 2.5 µM (SIK(h)) [%],remaining activity at 2.5 µM (HIPK3(h)) [%],remaining activity at 2.5 µM (MRCKα(h)) [%],remaining activity at 2.5 µM (MST3(h)) [%],remaining activity at 2.5 µM (MARK1(h)) [%],remaining activity at 2.5 µM (DAPK1(h)) [%],remaining activity at 2.5 µM (EGFR(T790M)(h)) [%],remaining activity at 2.5 µM (WNK2(h)) [%],remaining activity at 2.5 µM (NEK11(h)) [%],SMILES,other results
95,110,91,88,96,115,88,125,70,90,101,79,102,85,45,83,40,91,97,70,CN1CCCC1CCNC(=O)c1cn2c3c(c(N4CCC(c5cnccn5)C4)c(F)cc3c1=O)Oc1cc3ccccc3cc1-2 (stereo not drawn) [Compound A-1],remaining activity at 2.5 µM (STK33(h)): 90%; remaining activity at 2.5 µM (GRK6(h)): 90%; remaining activity at 2.5 µM (TSSK1(h)): 98%; remaining activity at 2.5 µM (Flt4(h)): 70%; remaining activity at 2.5 µM (EphA7(h)): 109%; remaining activity at 2.5 µM (PTK5(h)): 116%; remaining activity at 2.5 µM (CDK9/cyclin T1(h)): 116%
101,104,99,96,103,116,106,75,75,109,100,94,97,98,110,95,89,114,108,107,CC(=O)N1CCN(c2ccc3c(=O)c(C(=O)NCCN4CCCC4)c4n(C)c5ccccc5n4c3n2)CC1 [Compound B-1],remaining activity at 2.5 µM (STK33(h)): 102%; remaining activity at 2.5 µM (GRK6(h)): 83%; remaining activity at 2.5 µM (TSSK1(h)): 107%; remaining activity at 2.5 µM (Flt4(h)): 103%; remaining activity at 2.5 µM (EphA7(h)): 100%; remaining activity at 2.5 µM (PTK5(h)): 107%; remaining activity at 2.5 µM (CDK9/cyclin T1(h)): 100%
